Measurements: ChEMBL document CHEMBL3751691, “A Journey around the Medicinal Chemistry of Hepatitis C Virus Inhibitors Targeting NS4B: From Target to Preclinical Drug Candidates” (J Med Chem, 2016)
pEC50, pKd, pKi: −log10 of the molar value.

What was measured:
[1] = Binding affinity to […] by fluorescence assay; set-up: species or system Hepacivirus hominis
Hepatitis C virus [2] = experiment: Antiviral activity against HCV genotype 1b infected in human Huh7 cells assessed as inhibition of viral replication after 72 hrs by ELISA; format: functional, organism-based, Hepacivirus hominis; conditions: Huh-7, 72 h
Hepatitis C virus [3] = experiment: Antiviral activity against HCV genotype 1b; format: functional, organism-based, Hepacivirus hominis
[4] = Inhibition of HCV NS3/4A protease; set-up: species or system Hepacivirus hominis
Hepatitis C virus [5] = experiment: Antiviral activity against HCV genotype 1b infected in human Huh7 cells assessed as inhibition of viral replication by luciferase reporter-based viral replicon assay; format: functional, organism-based, Hepacivirus hominis; conditions: Huh-7
Hepatitis C virus [6] = experiment: Antiviral activity against HCV genotype 1a infected in human Huh7 cells assessed as inhibition of viral replication by luciferase reporter-based viral replicon assay; format: functional, Hepacivirus hominis; conditions: subtype 1a, Huh-7
[7] = Ratio of plasma concentration in cynomolgus monkey at 8 hrs to EC50 for antiviral activity against HCV genotype 1b; format: ADME, cell-free
[8] = Ratio of drug level in liver to plasma in CRL-CD-BR rat; format: ADME, cell-free
[9] = Ratio of plasma concentration in beagle dog at 8 hrs to EC50 for antiviral activity against HCV genotype 1b; format: ADME, cell-free
[10] = Ratio of drug level in brain to plasma in CRL-CD-BR rat; format: ADME, cell-free; conditions: read-out: BPR
[11] = Ratio of plasma concentration in CRL-CD-BR rat at 8 hrs to EC50 for antiviral activity against HCV genotype 1b; format: ADME, cell-free

| EC90 (Hepatitis C virus [5]) | SMILES | also measured |
| --- | --- | --- |
| – | CCCCc1c(C)nn(-c2nnc3c4ccccc4n(CC)c3n2)c1C | pKd [1]: 5.92; pEC50 (Hepatitis C virus [2]): 5.95 |
| – | CC(C)(C)c1ccc(C(=O)Nc2sc3c(c2C(N)=O)CCCC3)cc1 | pKd [1]: 6.52; pEC50 (Hepatitis C virus [2]): 6.06 |
| – | CCC[C@H](NC(=O)[C@@H]1[C@H]2CCC[C@H]2CN1C(=O)[C@@H](NC(=O)[C@@H](NC(=O)c1cnccn1)C1CCCCC1)C(C)(C)C)C(=O)C(=O)NC1CC1 | pEC50 (Hepatitis C virus [3]): 6.46; pKi [4]: 8.15 |
| 1100 nM | CC(C)C[C@H]1CN(C(=O)c2cc(-c3ccccc3)on2)[C@@H](CC(C)C)C(=O)N1 | – |
| 1400 nM | CC(C)C[C@H]1CN(C(=O)c2noc(-c3ccccc3)n2)[C@@H](CC(C)C)C(=O)N1 | – |
| > 10000 nM | CC(C)C[C@H]1CN(C(=O)c2cc(-c3ccccc3)[nH]n2)[C@@H](CC(C)C)C(=O)N1 | – |
| 1300 nM | COc1ccc(-c2cc(C(=O)N3C[C@H](CC(C)C)NC(=O)[C@@H]3CC(C)C)no2)cc1 | – |
| 290 nM | CC(C)C[C@H]1CN(C(=O)c2cc(-c3ccc(Cl)cc3)on2)[C@@H](CC(C)C)C(=O)N1 | – |
| 130 nM | CC(C)C[C@H]1CN(C(=O)c2cc(-c3ccc(F)cc3)on2)[C@@H](CC(C)C)C(=O)N1 | – |
| 2600 nM | CC(C)C[C@H]1CN(C(=O)c2cc(-c3ccc([N+](=O)[O-])cc3)on2)[C@@H](CC(C)C)C(=O)N1 | – |
| 100 nM | CCC[C@H]1CN(C(=O)c2cc(-c3ccc(F)cc3)on2)[C@@H](CC(C)C)C(=O)N1 | – |
| 60 nM | C/C=C/[C@H]1CN(C(=O)c2cc(-c3ccc(F)cc3)on2)[C@@H](CC(C)C)C(=O)N1 | – |
| 90 nM | CC(C)C[C@H]1C(=O)N[C@@H](C2CCCC2)CN1C(=O)c1cc(-c2ccc(F)cc2)on1 | – |
| > 10000 nM | CC(C)C[C@H]1C(=O)N[C@@H](CO)CN1C(=O)c1cc(-c2ccc(F)cc2)on1 | – |
| > 10000 nM | COC[C@H]1CN(C(=O)c2cc(-c3ccc(F)cc3)on2)[C@@H](CC(C)C)C(=O)N1 | – |
| 60 nM | CC(C)C[C@H]1C(=O)N[C@@H](c2ccccc2)CN1C(=O)c1cc(-c2ccc(F)cc2)on1 | – |
| 6 nM | CC(C)C[C@H]1C(=O)N[C@@H](c2cccs2)CN1C(=O)c1cc(-c2ccc(F)cc2)on1 | EC90 (Hepatitis C virus [6]): 22 nM |
| – | CCc1cc2c(cc1F)c(C#N)c(-c1ccc(S(=O)(=O)N[C@@H](C)C(F)(F)F)cn1)n2-c1ncccn1 | Ratio [7]: 50; Kp [8]: 25; Ratio [9]: 460; Kp [10]: 0.22; Ratio [11]: 325 |
| 8800 nM | CC(C)C[C@H]1CN(C(=O)[C@@H]2C[C@H]2c2ccccc2)[C@@H](CC(C)C)C(=O)N1C | – |
| > 10000 nM | CC(C)C[C@H]1CN(C(=O)[C@@H]2C[C@H]2c2ccccc2)[C@@H](CC(C)C)CN1 | – |
| > 10000 nM | CC[C@H]1C(=O)N[C@@H](CC(C)C)CN1C(=O)[C@@H]1C[C@H]1c1ccccc1 | – |
| > 10000 nM | CC[C@H](C)[C@H]1CN(C(=O)[C@@H]2C[C@H]2c2ccccc2)[C@@H](CC(C)C)C(=O)N1 | – |
| 900 nM | CCC[C@H]1CN(C(=O)[C@@H]2C[C@H]2c2ccccc2)[C@@H](CC(C)C)C(=O)N1 | – |
| 2300 nM | CC(C)C[C@H]1CN(C(=O)/C=C/c2ccccc2)[C@@H](CC(C)C)C(=O)N1 | – |
| > 10000 nM | CC(C)C[C@H]1CN(C(=O)/C=C\c2ccccc2)[C@@H](CC(C)C)C(=O)N1 | – |
